Measured values: PubChem BioAssay AID1996
Values after ≈ are worked out from the molar mass of the structure shown.

Details: buffer; pH 7.4; 200.0 µM

Row | SMILES | solubility kinetic [µg/mL]
1 | O=C(Nc1nccs1)OCc1ccccc1 | 12.8 (≈ 54.6 µM)
2 | COc1ccc(CNC(=O)CN(C)CC(=O)Nc2ccccc2Br)cc1 | > 63
3 | CSc1ccc(/C=C/C(=O)OCC(=O)N(C)CCC#N)cc1 | 29.9 (≈ 93.9 µM)
4 | Cc1cc(Nc2cccc(Br)c2)c2ccccc2n1 | 11.9 (≈ 38 µM)
5 | NCCNc1ccc([N+](=O)[O-])c2cccnc12 | 28.7 (≈ 124 µM)
6 | COc1ccc(C(C)NS(=O)(=O)Cc2ccccc2)cc1 (stereo unspecified) | 43 (≈ 141 µM)
7 | Cc1ccc(Nc2nc(N)c(C#N)c(CC#N)c2C#N)cc1 | 1.6 (≈ 5.55 µM)
8 | O=C(CSc1ccc(Cl)cc1)Nc1ccc(C2SCCS2)cc1 | 1 (≈ 2.62 µM)
9 | CC(=O)Nc1ccc(S(=O)(=O)NC(C)(C#N)C2CC2)cc1 (stereo unspecified) | > 46.1
10 | CC(=O)Nc1ccc(C(=O)COC(=O)C2CCCCC2)c(F)c1 | 10.7 (≈ 33.3 µM)
11 | CCCc1nc2cc3c(cc2[nH]1)n(C)c(=O)n3C.Cl | > 42.1
12 | CC(=O)Nc1ccc(S(=O)(=O)NC2CC2)cc1 | 37.6 (≈ 148 µM)
13 | O=C(O)c1ccc[nH]c1=S | > 23.3
14 | COc1ccc(C(C)=O)cc1COc1ccccc1[N+](=O)[O-] | < 0.6
15 | O=C(COc1ccc(-n2ccnc2)cc1)Nc1cccc(F)c1 | 31.1 (≈ 99.9 µM)
16 | c1ccc(CN2CCN(c3ncccn3)CC2)cc1 | 24.5 (≈ 96.3 µM)
17 | NC(=O)[C@@H]1CCCN1Cc1nc(Cc2ccccc2F)no1 | > 45.6
18 | O=C(COC(=O)C1CCC1)NCc1ccc(F)cc1 | > 39.8
19 | O=C(/C=C/Sc1ccc(C(F)(F)F)cn1)c1ccccc1 | < 0.7
20 | CCOc1ccccc1OCC(=O)Nc1nc2ccccc2[nH]1 | 4.1 (≈ 13.2 µM)
21 | COc1ccc(NC(=S)NCc2cccs2)cc1OC | 19.6 (≈ 63.5 µM)

Row | SMILES | solubility kinetic [µg/mL]
22 | Cc1c(C(=O)O)oc2ccc(S(=O)(=O)N3CCCC3)cc12 | > 46.4
23 | COC(=O)c1ccccc1NS(=O)(=O)c1ccc(Cl)nc1 | 48 (≈ 147 µM)
24 | OCCCNC(=S)Nc1ccc(Br)cc1Cl | > 48.5
25 | CCCc1nc(-c2cc3cc(C)ccc3[nH]c2=O)no1 | 15 (≈ 55.7 µM)
26 | O=C(CCC(=O)c1cccs1)NCc1cccc(Cl)c1 | > 46.2
27 | COc1ccc(CC(=O)O/N=C(\N)c2ccncc2)cc1 | 39.9 (≈ 140 µM)
28 | CC1(C)NC(=O)N(CCCCOc2ccc(Cl)cc2C=O)C1=O | 47.6 (≈ 140 µM)
29 | CC(NC(=O)COC(=O)c1ccc([N+](=O)[O-])o1)c1ccccc1 (stereo unspecified) | > 47.7
30 | CCN(c1ccccc1)S(=O)(=O)c1ccc2c(c1)OCCO2 | 26.3 (≈ 82.3 µM)
31 | Cc1cccc(Cc2ncc(C(F)(F)F)cc2Cl)c1 | < 0.6
32 | C=CCc1c(C)[nH]c(=O)[nH]c1=O | > 24.9
33 | CC(C)Cc1ccc(C(C)C(=O)Nc2ccccc2O)cc1 (stereo unspecified) | 1.9 (≈ 6.39 µM)
34 | CC1(C)CC(=O)N(c2cccc(Cl)c2)C(=O)C1 | > 37.8
35 | CC1CN(C(C)C)C(C)CC1OC(=O)c1ccccc1 (stereo unspecified) | > 41.3
36 | O=S(=O)(NCCCN1CCOCC1)c1ccc(Cl)s1 | 48.4 (≈ 149 µM)
37 | S=C1NCN(Cc2ccco2)CN1Cc1ccco1 | 40.3 (≈ 145 µM)
38 | CSc1sc(C(=O)Nc2ccc(F)cc2F)c2c1C=CCC2 | 2.9 (≈ 8.59 µM)
39 | O=C(N=C1SC2CS(=O)(=O)CC2N1c1ccccc1)c1ccccc1 (stereo unspecified) | 4 (≈ 10.7 µM)
40 | O=C(O)C(=O)O.O=[N+]([O-])c1ccccc1CNCCc1c[nH]c2ccccc12 | 41.8
41 | COc1ccc(NC(=O)c2cccc(Oc3ccccc3)c2)cn1 | 8.8 (≈ 27.5 µM)
42 | O=C(Nc1cccc(F)c1)c1ccc(Cn2cc([N+](=O)[O-])cn2)o1 | > 49.5

Row | SMILES | solubility kinetic [µg/mL]
43 | Cc1cc(C)nc(SCCC(=O)Nc2ccc(F)cc2)n1 | > 45.8
44 | Cc1nnc(SC(C)C(=O)NC2CCCCC2C)s1 (stereo unspecified) | > 44.9
45 | CN(C)CC1CCCCC1=O.Cl (stereo unspecified) | > 28.8
46 | CN(C(=O)CC1C(=O)NCCN1Cc1ccc(F)cc1)C1CCOCC1 (stereo unspecified) | > 54.5
47 | CC(C)(C)c1ccc(C(=O)NC(=S)N2CCCC2)cc1 | 7.2 (≈ 24.8 µM)
48 | CCOc1ccc(/C=C2\SC(=S)N(C)C2=O)cc1OC | < 0.7
49 | CC(C)(C)NC(=O)c1ccc2c(c1)C(=O)N(Cc1ccco1)C2=O | 46 (≈ 141 µM)
50 | CC1(C)C(=O)Nc2ccccc2N1C(=O)COc1ccc(C#N)cc1 | 38.1 (≈ 114 µM)
51 | CCc1ncc(C)[nH]1 | > 16.5
52 | Cc1ncc(S(=O)(=O)C(C)(C)C)c(N)n1 | 27.2 (≈ 119 µM)
53 | O=C(/C=C/c1ccccc1)Nc1ccc(NC(=O)c2cccs2)cc1 | < 0.4
54 | CC(C)(C)c1ccc(S(=O)(=O)NCc2ccccn2)cc1 | 44.1 (≈ 145 µM)
55 | Cc1cc(C(=O)COc2cccc([N+](=O)[O-])c2)c(C)n1C1CC1 | 6.2 (≈ 19.7 µM)
56 | CCOc1ccc(N2C(=O)CC(NCC#N)C2=O)cc1 (stereo unspecified) | > 41
57 | Cc1cccc(NC(=S)NC2CCSc3ccccc32)c1 (stereo unspecified) | < 0.3
58 | CC1CCC(NC(=O)CN(C)S(=O)(=O)c2cnc[nH]2)CC1 (stereo unspecified) | > 47.2
59 | O=C1NCCO1 | > 13.1
60 | COc1ccc(CCNC(=O)C(=O)N2CCCC2)cc1OC | 39.7 (≈ 130 µM)
61 | O=C(O)CCNC(=S)Nc1cccc(F)c1 | > 36.3
